# Measured values reported in patent US5932208A, “Compositions and methods for the use of such compositions in human therapeutics, characterized by the association of a muramyl peptide with a cytokine” (Vacsyn S.A., priority 1993, dated 1999).
# Where “and” joins values, the source holds several entries; their conditions need not be identical. Equal values may be shown once.
# How the values were obtained:
# neutrophils = test: Neutrophil counts in healthy volunteers after single subcutaneous administration; assay type: in vivo, human; settings: α-IFN 0, muramyl peptide 100 μg/Kg alone; highest value during the 24 hours after administration
# Procedure: (§1) They receive subcutaneously the mixtures described in the following table I of murabutide (MUB) or murametide (MUM) with α-interferon 2a (α-IFN).
# The subjects are monitored during the three days following the administration of the IFN and/or the muramyl peptides, and all of the tests and investigations necessary to carry out a phase I test are effected.
# Haematological analysis with white corpuscle counts at the time of injection and then 6 hours, 12 hours, 24 hours, 36 hours, 60 hours and 72 hours after injection.
# The leucocyte counts are carried out in a COULTER COUNTER automatic cell counter.
# Neutrophils are the cells which are the most affected by leucopenic treatments. It is the reduction in the amount of neutrophils which is responsible for the reduction in the non-specific immune defences in subjects subjected to radiotherapy or to cytotoxic and/or myelotoxic chemotherapy. To make reading easier, only the neutrophil counts made at the time when their variation is at its greatest have been given.
# neopterine = test: Neopterine test (RIA) on sera of healthy volunteers; assay type: in vivo, human; settings: for Influence on the amount of neopterine, in words: dose of 100 μg/kg alone; for Neopterine in serum: muramyl peptide 100 μg/Kg alone (α-IFN 0)
# Procedure: as §1
# (§2) Blood samples are taken before injection and 6 hours, 24 hours and 48 hours after injection, in order to collect the serum necessary to carry out the tests for neopterine, interleukin 1, 6 and 8, G-CSF, IL-1 RA and α-TNF.
# (§3) The blood samples for the serum tests are centrifuged at 4° C. and 3000 rpm for 10' immediately after they are taken. The sera are stored at -20° C. The leucocyte counts and the neopterine and cytokine tests are carried out using commercial kits.
# The tests are carried out on sera taken at 0, 24 and 48 hours. An RIA (Radio Immuno Assay) kit (Behring Diagnostic, France) is used. The results are expressed in […], and the normal values vary from […].
# [1] = system: IL-1 receptor antagonist (IL-1 RA); test: IL-1 receptor antagonist (IL-1 RA) test on sera of healthy volunteers; assay type: in vivo, human; settings: α-IFN 0, muramyl peptide 100 μg/Kg alone; 6 hours after administration
# Procedure: as §1, §2, §3
# IL-6 [2] = test: IL-6 test (Elisa) on sera of healthy volunteers; assay type: in vivo, human; settings: α-IFN 0, muramyl peptide 100 μg/Kg alone; 6 hours after administration
# Procedure: as §1, §2, §3
# The test is carried out using an Elisa test kit (British Biotechnology Products Ltd.) on sera taken at time 0 and after 6 hours. The figures express the pg/ml, the normal values are less than 6 pg.
# G-CSF = G-CSF test on sera of healthy volunteers; assay type: in vivo, human; settings: α-IFN 0, muramyl peptide 100 μg/Kg alone; for Amounts of G-CSF in serum after 0 hour: before administration
# Procedure: as §1, §2, §3
# These tests were carried out using the British Biotechnology Products Ltd. kit (see Table VI).
# [3] = system: Soluble TNF receptor (STNF-R); test: Soluble TNF receptor (STNF-R) ELISA test in serum; assay type: in vivo, human; settings: α-IFN 6 × 10^6 units and/or murabutide 100 μg/Kg
# Procedure: These tests are carried out by an ELISA test in the serum of subjects having 6M units of IFN. At that dose, there is already an appreciable increase in the amount of STNF-R but the addition of murabutide permits a significant increase in the secretion of that mediator.
# circulating neutrophils = test: Neutrophil count after repeated administration to humans (days 1, 3 and 5); assay type: in vivo, human; settings: α-IFN 2a 1 MU and/or murabutide 7 mg on days 1, 3 and 5
# Procedure: Phase I/IIa tests were carried out on 3 groups of 6 healthy volunteers who received the following treatments on days 1, 3 and 5:
# a) α-IFN 2a (1 MU) Roferon;
# c) the association of the two immunostimulants.
# By studying their influence on the number of circulating neutrophils.
# IL-6 [4] = test: In vitro incubation of blood of healthy volunteers: IL-6 secreted; assay type: cell-based, human
# Procedure: (§4) Blood taken from healthy volunteers was incubated in vitro with different combinations associating murabutide and α-IFN. The murabutide was used at a dose of 20 μg/ml and the IFN was used at a dose of from 30 to 100 μ/ml. At different times in the course of incubation, blood samples are taken and the mononucleated cells are separated on a Ficoll gradient. The total RNA is extracted, purified and separated by electrophoresis. It is then analysed in accordance with the Schreck method in order to determine by a hybridisation technique what genes were induced by the treatment.
# (§5) Studies similar to those described above were carried out in order to study the murabutide-GM-CSF association. These studies were carried out in vitro on the cells of healthy volunteers after incubation with immunomodulators alone or in association.
# (§6) Specific cytokines were sought and measured in the supernatants (see Table XIII).
# sTNFR2 = test: In vitro incubation of blood of healthy volunteers: sTNFR2 secreted; assay type: cell-based, human
# Procedure: as §4, §5, §6
# IL-1 RA = test: In vitro incubation of blood of healthy volunteers: IL-1 RA secreted; assay type: cell-based, human
# Procedure: as §4, §5, §6
# Swiss mice = test: Endotoxic shock (D-galactosamine + LPS) model in Swiss mice; assay type: in vivo; settings: for Average % mortality / Number of dead mice per total tested, Exp. 1 / Number of dead mice per total tested, Exp. 2 / Number of dead mice per total tested, Exp. 3: intravenously, mortality after 48 hours
# Procedure: The administration of D-galactosamine with lipopolysaccharide (LPS) to Swiss mice induces endotoxic shock with at least 70% mortality in 24-48 hours. The prophylactic or therapeutic effect of murabutide was studied in this model in order to evaluate its anti-inflammatory activity when it is administered alone or in combination with α/β-IFN. […] On the contrary, pretreatment with a combination of murabutide and α/β-interferon induces significant protection with an incidence of mortality of only 33% (against 78% in the controls).
# ^1) The Swiss mice were tested intraperitoneally at time 0 with 18 mg
# of Dgalactosamine + 50 ng of LPS. The mortality was measured after 48
# ^2) The compounds are administered intravenously either 3 hours befor
# KHT sarcoma cells = test: KHT sarcoma model in C3H/HeN mice, IL-2 with murametide; assay type: in vivo
# Procedure: A murine model has been developed in C3H/HeN mice. KHT sarcoma cells are administered by the venous route. After 4 days and 6 days they are treated with:
# c) the association of the two immunomodulators;
# d) a fourth group is not treated.
# [5] = +1 hr, Murabutide 15 mg/kg and/or α/β-IFN 1.25 × 10^6 IU/kg (alone: 11.25 × 10^6 IU/kg [sic])
# [6] = Murabutide 15 mg/kg alone, -3 hrs
# [7] = GM-CSF 1 ng/ml, without or with Murabutide 20 μg/ml
# [8] = GM-CSF 5 ng/ml, without or with Murabutide 20 μg/ml
compound,measurement,setting,value
"CCCCOC(=O)[C@@H](CCC(N)=O)NC(=O)[C@H](C)NC(=O)[C@@H](C)O[C@H]1[C@H](O)[C@@H](CO)OC(O)[C@@H]1NC(C)=O (stereo partly shown) [Murabutide, murabutide]",Neutrophil count % base line,neutrophils,268 ± 43 % base line
same,"Influence on the amount of neopterine, in words",neopterine,does not influence the amount significantly
same,Neopterine in serum,neopterine; T 0 hours,6.37 ± 0.99 nM
same,Neopterine in serum,neopterine; T 24 hours,7.33 ± 0.75 nM
same,Neopterine in serum,neopterine; T 48 hours,8.22 ± 1.39 nM
same,Amounts of IL-1 RA in the serum,[1],496 ± 326 pg/mL
same,Amounts of IL-6 in the serum,IL-6 [2],2.80 ± 1.60 pg/mL and 4.30 ± 1.80 pg/mL
same,Amounts of G-CSF in serum after 6 hours,G-CSF,18 ± 9
same,Amounts of G-CSF in serum after 0 hour,G-CSF,< 10
same,"Amount of STNF-R in the serum, 0 hour",[3],195 ± 28 pg/mL
same,"Amount of STNF-R in the serum, 6 hours",[3],616 ± 65 pg/mL
same,STNF-R net increase,[3]; 6 hours versus 0 hour,31 ± 37 pg/mL
same,Neutrophil count (% of the base line) after 3 hours,circulating neutrophils; day of treatment 1,139 ± 26 % of the base line
same,Neutrophil count (% of the base line) after 6 hours,circulating neutrophils; day of treatment 1,256 ± 51 % of the base line
same,Neutrophil count (% of the base line) after 12 hours,circulating neutrophils; day of treatment 1,227 ± 46 % of the base line
same,Neutrophil count (% of the base line) after 3 hours,circulating neutrophils; day of treatment 3,133 ± 24 % of the base line
same,Neutrophil count (% of the base line) after 6 hours,circulating neutrophils; day of treatment 3,182 ± 27 % of the base line
same,Neutrophil count (% of the base line) after 12 hours,circulating neutrophils; day of treatment 3,176 ± 59 % of the base line
same,Neutrophil count (% of the base line) after 3 hours,circulating neutrophils; day of treatment 5,107 ± 19 % of the base line
same,Neutrophil count (% of the base line) after 6 hours,circulating neutrophils; day of treatment 5,150 ± 28 % of the base line
same,Neutrophil count (% of the base line) after 12 hours,circulating neutrophils; day of treatment 5,153 ± 23 % of the base line
same,Average amounts of cytokines secreted: IL-6,IL-6 [4]; Murabutide 20 μg/ml alone,15.5 ± 11.3 pg/mL
same,Average amounts of cytokines secreted: sTNFR2,sTNFR2; Murabutide 20 μg/ml alone,1171 ± 478 pg/mL
same,Average amounts of cytokines secreted: IL-1 RA,IL-1 RA; Murabutide 20 μg/ml alone,7.8 ± 6.0 ng/mL
same,Average % mortality,Swiss mice; [5],31%
same,"Number of dead mice per total tested, Exp. 1",Swiss mice; [5],2/9
same,"Number of dead mice per total tested, Exp. 2",Swiss mice; [5],3/8
same,"Number of dead mice per total tested, Exp. 3",Swiss mice; [5],3/9
same,Average % mortality,Swiss mice; [6],74%
same,"Number of dead mice per total tested, Exp. 1",Swiss mice; [6],7/9
same,"Number of dead mice per total tested, Exp. 2",Swiss mice; [6],7/8
same,"Number of dead mice per total tested, Exp. 3",Swiss mice; [6],6/10
same,"Curative effect, in words",Swiss mice; administration 1 hour after the induction of endotoxic shock,significant curative effect
same,"Prophylactic effect against the galactosamine/LPS mixture, in words",Swiss mice; pretreatment of the mice,does not give rise to a prophylactic effect
"COC(=O)[C@@H](CCC(N)=O)NC(=O)[C@H](C)NC(=O)C(C)O[C@H]1[C@H](O)[C@@H](CO)O[C@H](O)[C@@H]1NC(C)=O (stereo partly shown) [Murametide, murametide]",Neutrophil count % base line,neutrophils,279 ± 67 % base line
same,"Influence on the amount of neopterine, in words",neopterine,does not influence the amount significantly
same,Neopterine in serum,neopterine; T 0 hours,5.43 ± 0.66 nM
same,Neopterine in serum,neopterine; T 24 hours,7.14 ± 1 nM
same,Neopterine in serum,neopterine; T 48 hours,7.39 ± 1.37 nM
same,Amounts of G-CSF in serum after 6 hours,G-CSF,73 ± 115
same,Amounts of G-CSF in serum after 0 hour,G-CSF,61 ± 103
same,Antitumour activity,"KHT sarcoma cells; mice having pulmonary sarcoma metastases, preliminary data",no antitumour activity
same,Toxicity of IL-2 in mice having tumours,KHT sarcoma cells; mice having tumours,reduces the toxicity of IL-2
GM-CSF: cytokine GM-CSF,Average amounts of cytokines secreted: IL-6,IL-6 [4]; [7],2.0 ± 1.5 pg/mL
same,Average amounts of cytokines secreted: IL-6,IL-6 [4]; [8],2.3 ± 2.1 pg/mL
same,Average amounts of cytokines secreted: sTNFR2,sTNFR2; [7],1027 ± 624 pg/mL
same,Average amounts of cytokines secreted: sTNFR2,sTNFR2; [8],1359 ± 350 pg/mL
same,Average amounts of cytokines secreted: IL-1 RA,IL-1 RA; [7],4.0 ± 1.4 ng/mL
same,Average amounts of cytokines secreted: IL-1 RA,IL-1 RA; [8],8.7 ± 10.0 ng/mL
